TGI data for 31 compounds are collected here from PubChem BioAssay (NCI).

What all share (test): NCI tumour cell line growth inhibition, 48 h
Assay [1] deals with MCF7 breast.
The test system of assay [2] is OVCAR-3 ovarian.
In assay [3] the test system is NCI-H522 lung.
In assay [4] the test system is MALME-3M melanoma.
Assay [5] deals with TK-10 renal.
Assay [6] concerns SW-620 colon.
In assay [7] the test system is LOX IMVI melanoma.
For assay [8], the system named is PC-3 prostate.
For assay [9], the system named is HCT-15 colon.
For assay [10], the system named is SK-MEL-28 melanoma.

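Method: 48-hour compound exposure of cells in 96-well plates, five concentrations, linear interpolation of endpoints. Definition used: TGI = concentration required for complete inhibition of growth.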

`FC(F)(F)c1cccc(-c2nc3ccccc3c3c2[C@@]2(N4CCCC4)CCCC[C@@H]32)c1`: the TGI was 62.8 µM in assay [1]; above 100 µM in assay [2]; 31.8 µM in [3]; above 100 µM in assay [4]; 89.8 µM in assay [5]; above 100 µM in assay [6]. Moreover, the TGI was 38.6 µM in [7] and above 100 µM in [8].

As to `O=C1CCCCCCCCCCC1CN1CCCCC1` (configuration not stated), the TGI in assay [9], in assay [2], in [10], in assay [3], in assay [4] and in assay [5] was above 100 µM throughout. Moreover, the TGI in assay [6] and in assay [7] was above 100 µM in each case.

Take `CCOC(=O)CNc1nc(=O)c2c(=O)oc(Cl)cc2o1`: the TGI in assay [9] turned out to be 23.7 µM; in assay [2], 25.5 µM; in [10] it was 63.7 µM; in assay [3] it was 17.3 µM; in assay [4] it was 23.5 µM; in assay [5], 28 µM. The TGI was determined as 85.6 µM in [6], 22.3 µM in [7] and 26 µM in [8].

As for `Clc1ccc(C2Nc3ccccc3C3=NCCN32)cc1` (configuration not stated), the TGI in [1] was 57.3 µM; in assay [9] it was above 100 µM; in [2] it was above 100 µM; in [10], 34.6 µM; in assay [4], 32.1 µM; in assay [5] it was 39.5 µM. Further, the figures for the TGI in assay [6], in assay [7] and in assay [8] were 98.6 µM, 36.2 µM and above 100 µM, respectively.

For the compound `CC(C)(C)C(=O)OC12/C(=N/O)CCCCCC1c1ccccc12` (configuration not stated), the TGI in [9] was 33 µM; in [2], 32.1 µM; in assay [10], 32.8 µM; in [3], 35 µM; in [4], 37.4 µM; in assay [5] it was 30.1 µM. Besides, the TGI amounted to 34.2 µM in assay [6] and 28.8 µM in assay [7].

Regarding `CC(=O)N=C1N(/C=C2\C(=O)Oc3ccccc3C2=O)C(=O)/C(=C/c2ccc(NC(C)=O)cc2)N1C`, the TGI in assay [1], in assay [9], in [2], in assay [10], in assay [3] and in assay [4] was above 100 µM in each case. The TGI in assay [6], in assay [7] and in [8] was above 100 µM in each case.

Regarding `C=C1C(=O)O[C@H]2[C@@H](O)[C@H](C)CCC[C@]3(C)O[C@H]3CC[C@@]3(C)O[C@@H]3C[C@@H]12`, the TGI in assay [1] was 7.87 µM; in [9], 4.74 µM; in assay [2], 10.6 µM; in assay [10], 8.91 µM; in [3], 2.85 µM; in [6], 5.05 µM. Moreover, the TGI in assay [8] turned out to be 14.5 µM.

For `O=C(Cc1ccccc1)Nn1c(-c2ccccc2)nc2ccccc2c1=O`, the TGI in assay [1], in assay [2], in [10], in [3], in assay [4] and in assay [5] was above 100 µM throughout. Moreover, the TGI in [6], in [7] and in assay [8] was above 100 µM throughout.

`COc1cc2cc(C(=O)N3CC(CCl)c4c3cc(N)c3ccccc43)[nH]c2c(OC)c1OC` (configuration not stated): the TGI in assay [9] was 1.58 µM; in assay [2], below 0.01 µM; in assay [3], below 0.01 µM; in [4], below 0.01 µM; in assay [5], 2.32 µM; in [6], above 100 µM. The TGI in assay [7] is 0.0103 µM; in assay [8] it was below 0.0114 µM.

With `Cc1c(C(=O)/C=C/c2ccccc2O)c(=O)n(-c2ccccc2)n1C`, the TGI in [9] was 60.5 µM; in assay [2], above 100 µM; in assay [10], above 100 µM; in assay [3], 47.5 µM; in [4], 70.7 µM; in assay [5], above 100 µM. In addition, the TGI in assay [6] is 35.5 µM; in assay [7] it was 45.9 µM.

On to `O=S(=O)(/N=C(\NO)Nc1ccc(Cl)cc1)c1cccc2nsnc12`, for which the TGI in assay [9] is above 100 µM; in assay [2], 70 µM; in assay [10], 46.6 µM; in assay [3] it was 28.9 µM; in [4], 46.3 µM; in assay [5] it was above 100 µM. In addition, the TGI in [6] was above 100 µM; in [7], 61.4 µM; in [8], above 100 µM.

As for `Cc1c(C(=O)/C=C/c2ccc(N(C)C)cc2)c(=O)n(-c2ccccc2)n1C`, the TGI in assay [9], in assay [2], in [10], in assay [3], in [4] and in [5] was above 100 µM in each case. Also, the TGI in [6] and in [7] was above 100 µM in each case.

As to `CCCCCCCCCCCCCCCCOC[C@@H](COC(c1ccccc1)(c1ccccc1)c1ccccc1)O[P+](=S)OC` (some centres not stated), the TGI turned out to be 31 µM in [1]; 22.4 µM in assay [9]; 31.8 µM in [2]; 27.5 µM in assay [3]; 23.6 µM in assay [5]; 37 µM in assay [6]. Also, the figures for the TGI in assay [7] and in [8] were 11.3 µM and 18.9 µM, respectively.

Take `Nc1ccc(C(=O)c2cn(CCN3CCOCC3)c3ccccc23)c2ccccc12`: the TGI in [1] is above 100 µM; in [9], 43.3 µM; in [2], above 100 µM; in assay [10], above 100 µM; in [3], above 100 µM; in assay [4], above 100 µM. Moreover, the TGI was above 100 µM in assay [6], 73.1 µM in [7] and above 100 µM in [8].

In the case of `S=C(c1c[nH]c2ccccc12)N1CCN(Cc2ccccc2)CC1`, the TGI was 46.7 µM in assay [1]; 28.1 µM in assay [9]; 29.4 µM in [2]; 31 µM in assay [10]; 33.7 µM in assay [4]; above 100 µM in [5]. Moreover, the TGI turned out to be 31.6 µM in assay [6], 29.2 µM in [7] and 30.8 µM in [8].

Take `O=[N+]([O-])c1cc2c(cc1/C=N/n1c(CO)nc3ccccc31)OCO2`: the TGI in assay [1], in assay [9], in assay [2], in assay [10], in assay [4] and in assay [5] was above 100 µM in each case. Besides, the TGI in assay [6], in [7] and in assay [8] was above 100 µM throughout.

As for `CCOC(=O)CC(=O)Nc1cccc2[nH]cnc12`, the TGI in [1], in [9], in assay [2], in assay [10], in assay [4] and in [6] was above 100 µM each time. Further, the TGI in [8] was above 100 µM.

As to `NC1=CN2c3ccccc3N(CC(=O)O)C2C=C1` (configuration not stated), the TGI in assay [1], in assay [9], in assay [2], in [10], in assay [4] and in [5] was above 100 µM each time. Also, the TGI in assay [6], in assay [7] and in [8] was above 100 µM throughout.

For `COc1ccc(C2SCC(=O)N2NC(=O)c2ccc(NC(C)=O)cc2)cc1` (configuration not stated), the TGI in assay [1], in [9], in assay [2], in assay [10], in assay [5] and in assay [6] was above 100 µM each time.

With `COC(C)(C)C1(O)CCC(C)CC1=O` (configuration not stated), the TGI in assay [9], in [2], in assay [10], in assay [3], in assay [4] and in assay [5] was above 100 µM each time. For the same compound, the TGI in assay [6] and in [8] was above 100 µM throughout.

In the case of `CN(/N=C/c1ccnc2ccccc12)c1ccc(Cl)cc1[N+](=O)[O-]`, the TGI in assay [1], in [9], in assay [2], in [3], in assay [4] and in [5] was above 100 µM in each case. In addition, the TGI in assay [6] and in assay [8] was above 100 µM throughout.

On to `Cc1ccc2nc(-c3ccc(N4C(=O)C(Cl)C4c4ccc(Cl)cc4)cc3)sc2c1` (configuration not stated), for which the TGI in [1] was 32.7 µM; in assay [9], 81.5 µM; in [2] it was 40.1 µM; in assay [10], 31.5 µM; in assay [4] it was above 100 µM; in assay [5], 38.1 µM. For the same compound, the TGI was determined as 48 µM in assay [6], 18.7 µM in assay [7] and 36.8 µM in assay [8].

As for `CC(=O)N=C1N(/C=C2\C(=O)Oc3ccccc3C2=O)C(=O)/C(=C/c2ccc(Cl)cc2Cl)N1C`, the TGI in assay [1], in assay [9], in assay [2], in assay [10], in [3] and in [4] was above 100 µM in each case. For the same compound, the TGI in [6], in [7] and in [8] was above 100 µM each time.

In the case of `COc1cc2c(=O)cnoc2cc1O`, the TGI in assay [1], in assay [9], in [2], in [10], in assay [3] and in assay [4] was above 100 µM in each case. The TGI in [5], in assay [6] and in assay [8] was above 100 µM in each case.

For the compound `CCOC(=O)/C(C#N)=C/c1ccnc2ccccc12`, the TGI in [9], in assay [2], in assay [10], in assay [3], in assay [4] and in [5] was above 100 µM in each case. Also, the TGI in assay [6] is above 100 µM; in assay [7], 72.1 µM; in assay [8], above 100 µM.

As for `CCOC(=O)c1sc2[n+](c1C)C(=O)/C(=C/c1ccc([N+](=O)[O-])cc1)S2`, the TGI in assay [1] was 62.6 µM; in assay [2] it was 24.1 µM; in assay [10] it was above 100 µM; in assay [5], 50.7 µM; in [6] it was 73.5 µM; in assay [7], 61.1 µM. Moreover, the TGI in assay [8] worked out at 57.4 µM.

As for `C=CCO[C@]1(CC=C)C(=O)C(=O)OC1C1COC(C)(C)O1` (some centres not stated), the TGI in assay [1] is 42 µM; in assay [9], 42 µM; in [2] it was above 100 µM; in assay [3] it was 43.6 µM; in assay [4], 32.3 µM; in assay [6] it was 35.4 µM. Further, the TGI in [7] was 31.5 µM; in assay [8] it was above 100 µM.

With `Cc1ccc2oc(=O)c(C(=O)Nc3nc(C45CC6CC(CC(C6)C4)C5)cs3)cc2c1`, the TGI in assay [1], in assay [9], in assay [2], in assay [10], in [3] and in assay [4] was above 100 µM throughout. In addition, the TGI in assay [6], in [7] and in assay [8] was above 100 µM each time.

With `CC(C)C1=CC23CCC4C(C)(C(=O)O)CCCC4(C)C2CC1C1C(=O)N(c2ccccc2)C(=O)C13` (configuration not stated), the TGI in assay [9], in [2], in assay [10], in assay [3], in assay [4] and in [5] was above 100 µM each time. Moreover, the TGI in [6] and in assay [7] was above 100 µM each time.

For `O=C1CC(c2cccc(Br)c2)n2cccc21` (configuration not stated), the TGI in assay [1], in [9], in [2], in [10], in [3] and in assay [5] was above 100 µM throughout. Besides, the TGI in [6], in assay [7] and in assay [8] was above 100 µM throughout.

With `CC1C2(C)OC(=N)C(C#N)(C(c3cccc([N+](=O)[O-])c3)O2)C1(C#N)C#N` (configuration not stated), the TGI in assay [1] is 50.2 µM; in assay [10], 47.5 µM; in assay [4] it was 73 µM; in assay [5], above 100 µM; in assay [6], 31.3 µM; in assay [7], 36 µM. This compound also showed a TGI in [8] above 100 µM.
